Data published in patent US20140323500A1, “NADPH OXIDASE 4 INHIBITORS AND USE THEREOF” (GENKYOTEX SA, priority 2011, published 2014).

molecular target: T1, human Nox4 (Homo sapiens, UniProt Q9NPH5); test: ROS production by membranes expressing human Nox4, cell-free Amplex Red assay; format: biochemical; settings: cell-free membranes, Amplex Red; Cheng-Prusoff; average of at least three experiments in triplicate; read-out: Ki hNox4
T1 construct: expressed in transfected cells; host or cells: T-REx-293 (hNOX4 T-REx-293), tetracycline-induced; membrane fraction
T1 sequence (Q9NPH5 1-578): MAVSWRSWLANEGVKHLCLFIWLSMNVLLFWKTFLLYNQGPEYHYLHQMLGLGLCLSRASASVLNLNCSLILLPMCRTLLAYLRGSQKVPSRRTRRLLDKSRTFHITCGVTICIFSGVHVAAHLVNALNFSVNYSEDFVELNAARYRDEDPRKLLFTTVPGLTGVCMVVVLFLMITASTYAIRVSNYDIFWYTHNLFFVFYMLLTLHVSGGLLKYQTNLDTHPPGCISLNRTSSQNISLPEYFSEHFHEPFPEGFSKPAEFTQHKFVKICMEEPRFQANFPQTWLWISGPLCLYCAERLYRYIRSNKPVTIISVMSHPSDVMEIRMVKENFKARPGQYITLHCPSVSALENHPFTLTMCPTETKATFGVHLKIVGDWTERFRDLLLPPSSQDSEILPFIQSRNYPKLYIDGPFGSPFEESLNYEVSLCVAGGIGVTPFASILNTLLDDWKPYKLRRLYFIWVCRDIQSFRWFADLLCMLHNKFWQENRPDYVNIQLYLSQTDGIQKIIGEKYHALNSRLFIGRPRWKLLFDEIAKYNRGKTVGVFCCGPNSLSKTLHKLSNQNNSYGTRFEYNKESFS
T1 sequence (P13498 2-195 partner limits assumed): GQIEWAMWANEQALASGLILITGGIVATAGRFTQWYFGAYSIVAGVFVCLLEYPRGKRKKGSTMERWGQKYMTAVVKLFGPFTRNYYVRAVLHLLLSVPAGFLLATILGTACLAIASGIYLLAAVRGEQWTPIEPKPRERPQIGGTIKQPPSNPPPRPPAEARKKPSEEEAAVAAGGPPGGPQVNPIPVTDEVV
Text: (§1) The Nox4 activity of Nox4 inhibitors according to the invention may be tested for their activity in the inhibition or reduction of formation of reactive oxygen species (ROS) from oxygen in cell free assays. In order to fully characterise Nox4 inhibitors, Nox subunit-specific cell-free, membrane-based systems have been developed and specific recombinant proteins have been added to membranes heterologously over-expressing their specific iso form. Nox enzymes produce superoxide (O2.−) as primary product, however due to the high instability and reactivity of this molecule which dismutates naturally into hydrogen peroxide (H2O2), therefore, read-out techniques involving probes that do measure H2O2 were used (e.g. using Amplex Red as a probe in order to facilitate consistent and accurate measurements). The activity of the compounds is tested in the following cell free assay using the techniques described here below:
Transfected T-REx™-CHO cells (R718-07) purchased from Invitrogen and T-REx™-293 cell line expressing hNOX4 (hNOX4 T-REx™-293) (Serrander et al., 2007, Biochem. J., 406, 105-114) were cultured in […]. Both media were supplemented with 10% FBS, 2 mM glutamine, penicillin (100 U/ml) and streptomycin (100 μg/ml). Selection pressure was maintained by continuous inclusion of blasticidin (5 μg/ml), and/or G418 (0.25 mg/ml), and/or Hygromycin (0.25 mg/ml) and/or zeocin (0.025 mg/ml).
(§2) Human Nox1, Nox2, Nox4, and Nox5 expression were induced with Tetracycline (1 μg/ml) during 24 h prior to the membrane preparation Membranes from transfected cells overexpressing Nox1, Nox2, Nox4 or Nox5 were prepared as previously described in Palicz et al., 2001, J. Biol. Chem., 76, 3090-3097. After resuspension in sonication buffer (11% sucrose, 120 mM NaCl, 1 mM EGTA in PBS, pH 7.4 for Nox4- or NOX5-expressing cells) or in relax buffer (10 mM Pipes, 3 mM NaCl, 3.5 mM MgCl2, 0.1M KCl, pH 7.4), cells were broken by sonication and centrifuged (200 g, 10 min). The supernatant was layered onto a 17/40% (w/v) discontinuous sucrose gradient and centrifuged (150,000×g for 60 min). Membrane fractions were collected from the 17/40% interface and were stored at −80° C. Protein concentration was determined with the Bradford reagent.
(§3) Reactive Oxygen Species (ROS) production by membranes expressing either human Nox1, or human Nox2 or human Nox4 or human Nox5 or by xanthine/xanthine oxidase were measured using the Amplex Red (AR) method following a slightly modified version of the manufacturer's instruction manual (Invitrogen). Briefly, membranes or xanthine were incubated in PBS with Amplex Red, Horse Radish Peroxidase (HRP) and appropriated co-factors. ROS production was induced by addition of NADPH to NOX-expressing membrane or by addition of xanthine to xanthine oxidase. Non-specific signal was measured in the absence of membranes or in the absence of xanthine.
Antagonist activity of compounds was measured in the presence of increasing concentrations ranging from 1 nM to 100 μM. After an incubation of 20 min in a plate shaker and incubator (Titramax 1000, VWR) at 37° C. with weak agitation (300 rpm), ROS levels were measured for 10 min in a BMG Fluostar microplate reader with excitation and emission wavelengths of 544 nm and 590 nm respectively.
Data were analysed using Prism (GraphPad Software Inc., San Diego, Calif.). Ki values were calculated using the Cheng-Prusoff equation and represent the average of at least three individual experiments performed in triplicate (Table 1). Nox4 inhibition was compared to that measured for Simvastatin (Enzo Life Sciences, CAS Number 79902-63-9) using the method described in Example 1. Reactive Oxygen Species (ROS) production by membranes expressing human Nox4 was measured using the Amplex Red (AR).

`COc1ccc(-c2c3c(=O)n(-c4ccccc4OC)[nH]c3cc(=O)n2Cc2cccnc2)cc1` [(33), 2-(2-methoxyphenyl)-4-(4-methoxyphenyl)-5-(pyridin-3-ylmethyl)-1H-pyrazolo[4,3-c]pyridine-3,6(2H,5H)-dione] and `COc1cccc(-c2c3c(=O)n(-c4ccccc4OC)[nH]c3cc(=O)n2Cc2cccnc2)c1` [(24), 2-(2-methoxyphenyl)-4-(3-methoxyphenyl)-5-(pyridin-3-ylmethyl)-1H-pyrazolo[4,3-c]pyridine-3,6(2H,5H)-dione] are within 1.5-fold of each other in Ki: 115 nM for the first, 99 nM for the second.

`O=c1c2c(-c3ccccc3F)n(Cc3ccncc3)c(=O)cc2[nH]n1-c1ccccc1Cl` [(29), 2-(2-chlorophenyl)-4-(2-fluorophenyl)-5-(pyridin-4-ylmethyl)-1H-pyrazolo[4,3-c]pyridine-3,6(2H,5H)-dione] and `O=c1c2c(-c3cccc(Cl)c3F)n(Cc3ccncc3)c(=O)cc2[nH]n1-c1ccccc1Cl` [(31), 4-(3-chloro-2-fluorophenyl)-2-(2-chlorophenyl)-5-(pyridin-4-ylmethyl)-1H-pyrazolo[4,3-c]pyridine-3,6(2H,5H)-dione] are within 1.5-fold of each other in Ki: 111 nM for the first, 112 nM for the second.

`Cc1c2c(=O)n(-c3ccccc3Cl)[nH]c2cc(=O)n1Cc1ccn(C)n1` [(30), 2-(2-chlorophenyl)-4-methyl-5-[(1-methyl-1H-pyrazol-3-yl)methyl]-1H-pyrazolo[4,3-c]pyridine-3,6(2H,5H)-dione] and `CN(C)c1cccc(-c2c3c(=O)n(-c4ccccc4Cl)[nH]c3cc(=O)n2Cc2ccn(C)n2)c1` [(43), 2-(2-chlorophenyl)-4-[3-(dimethylamino)phenyl]-5-[(1-methyl-1H-pyrazol-3-yl)methyl]-1H-pyrazolo[4,3-c]pyridine-3,6(2H,5H)-dione] are within 1.5-fold of each other in Ki: 111 nM for the first, 126 nM for the second.

`COc1cccc(-c2c3c(=O)n(-c4ccccc4OC)[nH]c3cc(=O)n2Cc2ccn(C)n2)c1` [(20), 2-(2-methoxyphenyl)-4-(3-methoxyphenyl)-5-[(1-methyl-1H-pyrazol-3-yl)methyl]-1H-pyrazolo[4,3-c]pyridine-3,6(2H,5H)-dione] and `COc1ccc(-c2c3c(=O)n(-c4ccccc4OC)[nH]c3cc(=O)n2Cc2ccn(C)n2)cc1` [(23), 2-(2-methoxyphenyl)-4-(4-methoxyphenyl)-5-[(1-methyl-1H-pyrazol-3-yl)methyl]-1H-pyrazolo[4,3-c]pyridine-3,6(2H,5H)-dione] are within 1.5-fold of each other in Ki: 94 nM for the first, 98 nM for the second.

`O=c1c2c(-c3c(F)cccc3F)n(Cc3ccncc3)c(=O)cc2[nH]n1-c1ccccc1Cl` [(28), 2-(2-chlorophenyl)-4-(2,6-difluorophenyl)-5-(pyridin-4-ylmethyl)-1H-pyrazolo[4,3-c]pyridine-3,6(2H,5H)-dione] and `O=c1c2c(-c3c(F)cccc3F)n(Cc3cccnc3)c(=O)cc2[nH]n1-c1ccccc1Cl` [(40), 2-(2-chlorophenyl)-4-(2,6-difluorophenyl)-5-(pyridin-3-ylmethyl)-1H-pyrazolo[4,3-c]pyridine-3,6(2H,5H)-dione] are within 1.5-fold of each other in Ki: 109 nM for the first, 148 nM for the second.

Compared with `O=c1c2c(-c3cccc(Cl)c3F)n(Cc3cccnc3)c(=O)cc2[nH]n1-c1ccccc1Cl` [(38), 4-(3-chloro-2-fluorophenyl)-2-(2-chlorophenyl)-5-(pyridin-3-ylmethyl)-1H-pyrazolo[4,3-c]pyridine-3,6(2H,5H)-dione], `O=c1c2c(-c3cc(Cl)ccc3F)n(Cc3ccncc3)c(=O)cc2[nH]n1-c1ccccc1Cl` [(12), 4-(5-chloro-2-fluorophenyl)-2-(2-chlorophenyl)-5-(pyridin-4-ylmethyl)-1H-pyrazolo[4,3-c]pyridine-3,6(2H,5H)-dione] is 1.6-fold lower in Ki: 129 nM for the first, 79 nM for the second.

`COc1ccc(F)c(-c2c3c(=O)n(-c4ccccc4OC)[nH]c3cc(=O)n2Cc2cnccn2)c1` [(41), 4-(2-fluoro-5-methoxyphenyl)-2-(2-methoxyphenyl)-5-(pyrazin-2-ylmethyl)-1H-pyrazolo[4,3-c]pyridine-3,6(2H,5H)-dione] was tested, and the Ki was 148 nM.

molecular target: T2, human Nox2 (Homo sapiens, UniProt P04839); test: ROS production by membranes expressing human Nox2, cell-free Amplex Red assay; format: biochemical; settings: cell-free membranes, Amplex Red; Cheng-Prusoff; average of at least three experiments in triplicate; read-out: Ki hNox2
T2 construct: host or cells: T-REx-CHO (hNOX2 T-REx-CHO), tetracycline-induced; membrane fraction
T2 sequence (P04839 2-570 limits assumed): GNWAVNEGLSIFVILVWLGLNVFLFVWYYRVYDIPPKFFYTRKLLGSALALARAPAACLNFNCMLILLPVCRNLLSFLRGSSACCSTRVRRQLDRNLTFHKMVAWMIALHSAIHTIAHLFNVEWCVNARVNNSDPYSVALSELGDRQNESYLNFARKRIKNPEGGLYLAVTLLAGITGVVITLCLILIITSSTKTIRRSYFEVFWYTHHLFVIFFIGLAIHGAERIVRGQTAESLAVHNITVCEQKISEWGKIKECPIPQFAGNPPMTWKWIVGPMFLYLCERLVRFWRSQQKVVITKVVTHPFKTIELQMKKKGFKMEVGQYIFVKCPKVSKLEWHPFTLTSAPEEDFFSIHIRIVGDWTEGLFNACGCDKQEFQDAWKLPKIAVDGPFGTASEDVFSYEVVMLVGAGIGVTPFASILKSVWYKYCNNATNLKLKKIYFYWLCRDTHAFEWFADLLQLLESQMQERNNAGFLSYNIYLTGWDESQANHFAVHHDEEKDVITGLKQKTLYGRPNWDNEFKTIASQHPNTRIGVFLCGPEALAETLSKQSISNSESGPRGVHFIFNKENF
T2 sequence (P13498 2-195 partner limits assumed): T1 sequence (P13498 2-195 partner limits assumed)
Text: as §1
Human Nox1 (NM_007052.4), human NOX2 (NM_000397), and human NOX5 (NM_0245052244) cDNAs were cloned into the pcDNA5/TO (Invitrogen). Human p22 (NM_000101.2) was cloned into pcDNA3.1/Zeo (+) (Invitrogen), and human NOXA1 (AY255769.1) and human NOXO1 (AB097667) were cloned into the bi-cistronic pVITRO1-neo-mcs plasmid (Invivogen).
Cells were transfected by using the FuGENE 6 method. Cells stably expressing functional human Nox1 (hNOX1 T-REx™-CHO) were obtained by co-transfecting T-REx™-CHO cells with human Nox1, human p22, human NOXA1 and human NOXO1. Cells stably expressing functional human Nox2 (hNOX2 T-REx™-CHO) were obtained by co-transfecting T-REx™-CHO cells with human nox2, human p22 and human cofactors. Cells stably expressing functional human Nox5 (hNOX5 T-REx™-CHO) were obtained by transfecting T-REx™-CHO cells with human Nox5. Co-transfected cells were selected with the appropriate antibiotics for 10 days. For the selection, hygromycin and G418 were used at 2 mg/ml and zeocin at 0.1 mg/ml. For the establishment of each stably transfected cell line, a pool of antibiotic-resistant cells was generated. Cells were cloned by limiting dilution. Several clones were established and investigated for ROS production upon tetracycline-induced hNox expression using a cellular AR assay. The expression of NOXes was done with tetracycline (1 μg/ml) during 24 h prior to the assay.
as §2, §3
Antagonist activity of compounds was measured in the presence of increasing concentrations ranging from 1 nM to 100 μM. […]

First: O=c1c2c(-c3ccccc3F)n(Cc3ccncc3)c(=O)cc2[nH]n1-c1ccccc1Cl [(29), 2-(2-chlorophenyl)-4-(2-fluorophenyl)-5-(pyridin-4-ylmethyl)-1H-pyrazolo[4,3-c]pyridine-3,6(2H,5H)-dione]
Second: Cc1c2c(=O)n(-c3ccccc3Cl)[nH]c2cc(=O)n1Cc1ccn(C)n1 [(30), 2-(2-chlorophenyl)-4-methyl-5-[(1-methyl-1H-pyrazol-3-yl)methyl]-1H-pyrazolo[4,3-c]pyridine-3,6(2H,5H)-dione]
The Ki of the first is 1.6-fold lower: 655 nM for the first, 1060 nM for the second. The first binds more tightly here.
